Test results reported in patent publication US11905537B2, “Bifunction chemical epigenetic modifiers and methods of use” (The University of North Carolina at Chapel Hill, priority 2017, dated 2024).
“And” between values parts separate entries of the source, which are not always exact repeats. Equal values may be shown once. One block for each molecule: values may come before it.

Tests used:
Assay type in all cases: cell-based, human
[1] = system: BFP reporter gene downstream of a tre3g promoter; experiment: BFP reporter activation in HEK 293T cells with dCas9 systems, flow cytometry
Text: To test for changes in gene expression, human embryonic kidney (HEK) 293T cells were transfected with a BFP reporter gene downstream of a tre3g promoter and performed flow cytometry on at least 100,000 cells after co-expressing the gRNA and dCas9 machinery(Ma, D. et al. Nat. Commun. 7, 13056 (2016)). As a benchmark control for gene activation, a dCas9-p300 fusion protein known to increase expression was used (Hilton, I. B. et al., Nat. Biotechnol. 33, 510-517 (2015)). Using a gRNA that targets the tre3g promoter at six interspaced sites, the dCas9-p300 increased BFP expression 14-fold compared to the non-targeting (NT) control gRNA (FIG. 21A, p<0.05). Next, activating the reporter gene with a plasmid expressing dCas9 (N-terminus)-FKBPx2 (C-terminus) was tested using three predicted activating bifunctional CEMs.
Cell culture: Low passage (p30-40) HEK 293T cells were cultured with high-glucose DMEM (Corning, 10-013-CV) supplemented with 10% FBS serum (Atlantic Biologicals, S11550), 10 mM HEPES (Corning, 25-060-Cl), NEAA (Gibco, 11140-050), Pen/Strep, and 55 μM 2-Mercaptoethanol. Cells were passaged every 2-5 days and maintained at 10-90% confluency in an incubator at 37° C. and 5% CO2.
Cell Transfection: For FIG. 21, HEK 293T cells were split into 12-well plates with 100,000 cells per well. The next day, PEI (polyethlenimine, Polysciences #23966-1) transfection was done with 1 μg of DNA, 3 μL of PEI, and 100 μL of Optimem (Gibco, 31985070). For FIGS. 21A, 21B, 22, and 23 we transfected with 0.1 μg BFP reporter; 0.7 μg dCas9-X; 0.2 μg gRNA. For FIG. 19C, FIG. 19D, FIG. 24, and FIG. 24 we transfected with 0.1 μg BFP reporter; 0.5 μg dCas9-X; 0.2 μg scFv-FKBP or ms2-FKBP; 0.2 μg gRNA. Media was change 16 hours after transfection with fresh media, with or without bifunctional CEMa addition. After 48 hours of bifunctional CEMa exposure, cells were isolated for flow cytometry analysis. For FIG. 23, HEK 293T cells were split into 6-well plates with 200,000 cells per well. The next day, PIE transfection was done with 3 μg of DNA, 9 μL of PEI, and 200 μL of Optimem. For FIGS. 23A-C and 26, 3 μg of gRNA was added in equal ratio (if applicable). Media was change 16 hours after transfection with fresh media, with or without bifunctional CEMa addition. After 48 hours of bifunctional CEMa exposure, cells were isolate for RNA extraction.
Flow cytometry: Flow cytometry was performed with the Attune Nxt as previously described (Chiarella, A. M. et al. Biochemistry 57, 2756-2761 (2018)). The data presented represents three separate transfections and significance was determined with the student's t-test.

HEK 293T cells = experiment: Cell health by cell density and morphology in the dose curve; conditions: concentrations of 500 nM and above, data not shown
Description: The dCas9 “SunTag” system was adapted to be compatible with the bifunctional CEMa technology(Tanenbaum, M. E. et al. Cell 159, 635-646 (2014); (Chavez, A. et al. Nat. Methods 13, 563-567 (2016)). Using the improved dCas9-CEMa system (dCas9-FKBPx2, ms2-FKBP, tre3g ×6 gRNA, BFP reporter), the effects of a global epigenetic inhibitor in combination with a gene-specific approach was tested. After the cells were transfected, they were treated with 200 nM of CEM87 and 2.5 μM of Entinostat. BFP expression increased 34-fold compared to unreated cells as measured by flow cytometry. More specifically, A dCas9-SunTagx10 plasmid was used that expresses an array of 10 yeast-specific GCN4 (gene control protein 4) peptides from the C-terminus of the dCas9, and co-transfected with a single chain variable fragment (scFv), (made to be GCN4-specific) fused to FKBP. Theoretically, as many as 10 FKBP molecules per dCas9 would be recruited to the gene of interest, increasing the bifunctional CEMa recruitment power. With the adapted SunTag method and the tre3g ×6 gRNA, 48 hours of 200 nM CEM87 exposure increased expression 16-fold compared to untreated cells (FIG. 24, p<0.001). […] With the improved dCas9 system and the most efficient bifunctional CEMa, CEM87, a dose-curve was performed and the ideal concentration for maximum expression was determined to be 200 nM (FIG. 21D). […]

MYOD1 = experiment: Endogenous MYOD1 activation in HEK 293T cells, qRT-PCR; conditions: 200 nM, 48 hours
Text: (§1) Next, the plasmid-optimized dCas9-CEMa system was adapted to target endogenous mammalian genes. Because an endogenous gene was being targeted rather than hundreds of transiently expressing reporter plasmids, the dCas9 machinery (dCas9-p300, dCas9-FKBPx2 and/or MCP-FKBP) was chosen to transfect HEK 293T cells. After the cells were stably selected for integration of the dCas9- and MCP-expressing plasmids, the gRNAs that were designed to target endogenous genes were transfected. To determine the time point at which to observe more efficient dCas9 regulation by this method, cells expressing dCas9-p300 were transfected with gRNAs for myogenic differentiation (MYOD1), the RNA was extracted and qRT-PCR was performed after 24, 48 and 72 hours post transfection. […]
(§2) RNA extraction: For FIGS. 23 and 26, cells from the 6-well plates were isolated. […] RNA extraction was performed with an RNeasy Plus Mini Kit (Qiagen, 74134) and the relative enrichment of mRNA was quantified with the RNA-to-CTr 1-step kit (Thermo Fisher Scientific, 4389986). […]

ASCL1 = experiment: Endogenous ASCL1 activation in HEK 293T cells, qRT-PCR; conditions: 48 hours
Text: as §1, §2

CXCR4 = experiment: Endogenous CXCR4 activation in HEK 293T cells, qRT-PCR; conditions: 48 hours
Text: as §1, §2

[2] = dCas9-FKBPx2 (FIG. 21B legend: dCas9-FKBPx1), 200 nM, 48 hours, vs untreated cells
[3] = dCas9-SunTagx10 with scFv-FKBP, tre3g ×6 gRNA, 200 nM, 48 hours, vs untreated

cell health (cell density and morphology) (HEK 293T cells): appeared less healthy
SMILES: COc1ccc2c(c1)C(c1ccc(Cl)cc1)=N[C@@H](CC(=O)NCc1cn(CCOCCOCCOCCNC(=O)CCSCCC[C@@H]3/C=C(\C)C[C@H](C)C[C@H](OC)[C@H]4O[C@@](O)(C(=O)C(=O)N5CCCC[C@H]5C(=O)O[C@H](/C(C)=C/[C@@H]5CC[C@@H](O)[C@H](OC)C5)[C@H](C)[C@@H](O)CC3=O)[C@H](C)C[C@@H]4OC)nn1)c1nnc(C)n1-2 [CEM87]
increase in BFP expression in combination with HDACi ([1]; 200 nM CEM87 plus 2.5 μM entinostat, dCas9-FKBPx2, ms2-FKBP, vs untreated cells): 34 fold
increase in BFP expression [1, 2]: 7.5 fold and ~7 fold
increase in BFP expression ([1]; dCas9-FKBPx2, 6×-tre3g gRNA, 200 nM, 48 hours, vs untreated): 5 fold
increase in BFP expression ([1]; dCas9-FKBPx2, ms2-FKBP, tre3g ×6 gRNA, 200 nM, vs untreated cells): 18 fold
activation of BFP expression ([1]; dCas9-FKBPx2, multiplex gRNA, 200 nM, 48 hours, vs untreated): 4 fold
increase in BFP expression ([1]; dCas9-FKBPx2, single site gRNA in gene body, 200 nM, 48 hours, vs untreated): 2 fold
effect on BFP expression with dCas9-HA ([1]; dCas9-HA (no FKBP recruitment site), 6×-tre3g gRNA, 200 nM, 48 hours): did not significantly affect the BFP expression
increase in BFP expression [1, 3]: 16 fold
activation of BFP expression ([1]; dose curve, 10 nM, dCas9-FKBPx2, ms2-FKBP): 2 fold
activation of BFP expression ([1]; dose curve, 50 nM, dCas9-FKBPx2, ms2-FKBP): 8 fold
ideal concentration for maximum expression ([1]; dose curve, dCas9-FKBPx2, ms2-FKBP): 200 nM
MYOD1 expression change with NT gRNAs (MYOD1; NT gRNA control cells): no significant changes in expression
increase in MYOD1 mRNA levels (MYOD1; dCas9-FKBPx2 and ms2-FKBP, MYOD1 gRNAs, vs untreated, normalized to Gapdh): 13 fold
increase in ASCL1 in NT samples (ASCL1; NT gRNA samples): less than 4 fold
increase in ASCL1 mRNA levels (ASCL1; dCas9-FKBPx2 and ms2-FKBP, ASCL1 gRNAs, vs untreated): 22 fold
change in CXCR4 expression with NT gRNA (CXCR4; NT gRNA control cells): less than 2 fold
increase in CXCR4 expression (CXCR4; dCas9-FKBPx2 and ms2-FKBP, CXCR4 gRNAs, vs untreated): 10 fold

SMILES: CO[C@H]1C[C@@H](C)C/C(C)=C/[C@@H](CCCSCCC(=O)NCCOCCOCCOCCn2cc(COc3ccc(CCc4nc5cc(-c6c(C)noc6C)ccc5n4CCN4CCOCC4)cc3F)nn2)C(=O)C[C@H](O)[C@@H](C)[C@@H](/C(C)=C/[C@@H]2CC[C@@H](O)[C@H](OC)C2)OC(=O)[C@@H]2CCCCN2C(=O)C(=O)[C@]2(O)O[C@H]1[C@@H](OC)C[C@H]2C [CEM114]
increase in BFP expression [1, 2]: 1.6 fold
increase in BFP expression ([1]; dCas9-FKBPx2, ms2-FKBP, tre3g ×6 gRNA, equivalent concentration, vs cells expressing NT gRNA): 6 fold
increase in BFP expression [1, 3]: 2 fold
